Holding throughout (assay): Measurement of transcriptional activity, GAL4-PPAR LBD chimera / PLAP reporter in CV-1 cells
Common to all, as to type: cell-based

One assay concerns the target T1, PPAR α (Homo sapiens, UniProt Q07869).
T1 construct: human PPAR 167–468 (PPAR); expressed in transfected cells; host or cells: CV-1 (ATCC CCL-70)
T1 sequence (Q07869 167-468): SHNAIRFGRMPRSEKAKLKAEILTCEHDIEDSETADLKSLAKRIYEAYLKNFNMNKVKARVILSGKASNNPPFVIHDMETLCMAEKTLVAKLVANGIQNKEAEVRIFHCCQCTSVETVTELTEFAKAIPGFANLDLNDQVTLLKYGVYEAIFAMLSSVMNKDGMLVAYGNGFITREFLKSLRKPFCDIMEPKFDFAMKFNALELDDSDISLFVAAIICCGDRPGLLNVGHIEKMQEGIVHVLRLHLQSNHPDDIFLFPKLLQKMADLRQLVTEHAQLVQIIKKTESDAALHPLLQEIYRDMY
The settings on record: PLAP activity secreted 24 hours after addition of the compound, read-out: Transcriptional activities EC50 PPAR α. From the text:
(§1) Measurement of Transcriptional Activity
(§2) A GAL4-PPAR LBD chimera expression vector was constructed by ligating human PPAR 167–468 (PPAR), 138–440 (NUC-1) and 174–475 (PPAR) amino acid regions (LBD: Ligand Binding Domain) to a yeast transcriptional factor GAL4 1–147 amino acid region. As the reporter gene, PLAP (Placental Alkaline Phosphatase) was used, and this was ligated downstream of a TK promoter containing a 5-copy GAL4 DNA binding element to construct a vector. As host cells, CV-1 (ATCC CCL-70) was used. That is, CV-1 cells were spread at a density of 5×10^5 cells on a 35-mm dish and cultured in 10% FCS/DMEM for 24 hours, and using FuGENE 6 transfection reagent, the cells were co-transfected with the GAL4-PPAR LBD expression vector and GAL4 DBD-TK-PLAP expression vector. 24 hours after this transfection, the cells were spread again on a 96-well plate at a density of 1×10^4/well and further cultured for 24 hours. After 24 hours, the medium was exchanged with DMEM containing 10% FCS, which was previously treated at 65° C. for inactivating intrinsic alkaline phosphatase, and a test compound was added at an arbitrary concentration. The transcriptional activity was determined in terms of PLAP activity secreted 24 hours after addition of the compound, to calculate EC50. The PLAP activity was determined after adding 50 μl assay buffer and 50 μl chemoluminescence substrate to 10 μl culture supernatant and incubating the mixture at room temperature for 1 hour. The transcriptional activities for PPARα, PPARβ(δ) and PPARγ are shown respectively in Table 1.

The target of another assay is T2, PPAR β (Homo sapiens, UniProt Q03181).
T2 construct: 138–440 (NUC-1); expressed in transfected cells; host or cells: CV-1 (ATCC CCL-70)
T2 sequence (Q03181 138-440): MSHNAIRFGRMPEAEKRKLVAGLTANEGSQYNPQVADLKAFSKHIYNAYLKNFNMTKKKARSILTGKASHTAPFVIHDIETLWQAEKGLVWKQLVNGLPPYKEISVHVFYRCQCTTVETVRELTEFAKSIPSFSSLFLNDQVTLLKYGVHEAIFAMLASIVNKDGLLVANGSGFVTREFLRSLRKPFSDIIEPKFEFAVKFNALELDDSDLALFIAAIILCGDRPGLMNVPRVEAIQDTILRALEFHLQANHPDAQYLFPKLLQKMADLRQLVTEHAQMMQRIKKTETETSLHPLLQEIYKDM
The settings on record: PLAP activity secreted 24 hours after addition of the compound, read-out: Transcriptional activities EC50 PPAR β.
Excerpt: as §1, §2

The target of a further assay is T3, PPAR γ (Homo sapiens, UniProt P37231).
T3 construct: 174–475 (PPAR) amino acid regions; expressed in transfected cells; host or cells: CV-1 (ATCC CCL-70)
T3 sequence (P37231 174-475 isoform P37231-2): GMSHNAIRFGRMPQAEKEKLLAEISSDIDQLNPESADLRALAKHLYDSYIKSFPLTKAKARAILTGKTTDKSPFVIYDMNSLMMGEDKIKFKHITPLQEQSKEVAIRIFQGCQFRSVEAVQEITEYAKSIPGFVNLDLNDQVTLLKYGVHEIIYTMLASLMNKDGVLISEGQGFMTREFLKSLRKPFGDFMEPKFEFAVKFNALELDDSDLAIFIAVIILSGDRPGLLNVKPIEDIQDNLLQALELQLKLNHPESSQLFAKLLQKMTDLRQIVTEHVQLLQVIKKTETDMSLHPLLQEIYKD
The settings on record: PLAP activity secreted 24 hours after addition of the compound, read-out: Transcriptional activities EC50 PPAR γ.
Excerpt: as §1, §2

`COc1ccc(CC(OC(C)C)C(=O)O)c(OC)c1CNC(=O)c1ccc(OC2CCCC2)cc1Cl` (stereo not drawn) [Example 11, 3-(3-[(2-Chloro-4-cyclopentyloxybenzoyl)amino]methyl-2,4-dimethoxyphenyl)-2-isopropoxypropionic acid]: the results for the EC50 at PPAR α, on PPAR β and on PPAR γ were 10.8 nM, 1000 nM and 5.8 nM, respectively.

As to `CC(C)Oc1ccc(C(=O)NCc2cc(CC(OC(C)C)C(=O)O)cc3c2OCC3)c(Cl)c1` (stereo not drawn) [Example 42, 3-(7-[(2-Chloro-4-isopropoxybenzoyl)amino]methyl-2,3-dihydrobenzo[b]furan-5-yl)-2-isopropoxypropionic acid], the EC50 at PPAR α came to 17.9 nM; on PPAR β, 1600 nM; on PPAR γ, 3.4 nM.

As to `CC(C)OC(Cc1cc(CNC(=O)c2ccc(C(F)(F)F)cc2F)c2occc2c1)C(=O)O` (stereo not drawn) [Example 35], the figures for the EC50 on PPAR α, at PPAR β and on PPAR γ were 66.5 nM, 483 nM and 52.4 nM, respectively.

For the origin of these results see patent publication US7244861B2, “Benzene compound and salt thereof” (Eisai Co., Ltd., priority 2001, dated 2007).
